Assay results published in patent US10265303B2, “Hyperphenylalaninemia and treatments thereof” (BERGEN TEKNOLOGIOVERFØRING AS, priority 2015, dated 2019).
Positions count from the first letter of the chain named.

Assays:
Format in all cases: cell-based
R261Q-PAH = biological target: T1, R261Q-PAH (Homo sapiens, UniProt P00439, R261Q); assay: PAH protein level and activity in HEK293 EBNA cells transiently expressing PKU mutant R261Q; settings: 24 h
T1 construct: expressed in transfected cells; host or cells: HEK293 EBNA, transient, pcDNA3-PAH
T1 sequence (P00439 1-452 R261Q): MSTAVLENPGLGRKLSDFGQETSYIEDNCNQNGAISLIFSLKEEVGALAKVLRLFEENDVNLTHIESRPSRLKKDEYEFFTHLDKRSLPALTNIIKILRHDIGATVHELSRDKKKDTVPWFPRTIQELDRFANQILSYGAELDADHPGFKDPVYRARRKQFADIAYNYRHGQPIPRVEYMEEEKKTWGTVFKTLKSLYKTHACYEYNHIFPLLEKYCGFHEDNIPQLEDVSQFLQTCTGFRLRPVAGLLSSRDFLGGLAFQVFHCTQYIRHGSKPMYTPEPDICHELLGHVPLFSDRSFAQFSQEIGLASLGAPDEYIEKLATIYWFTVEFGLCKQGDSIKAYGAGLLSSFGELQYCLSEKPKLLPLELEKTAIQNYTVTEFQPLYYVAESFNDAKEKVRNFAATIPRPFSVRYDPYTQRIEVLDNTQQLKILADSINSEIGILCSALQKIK
Experimental: (§1) Cell lysates were prepared as indicated above.

human wild-type PAH [1] = biological target: T2, human wild-type PAH (Homo sapiens, UniProt P00439); assay: PAH activity in lysates of HEK293 cells permanently expressing human wild-type PAH
T2 construct: expressed in transfected cells
T2 sequence (P00439 1-452): T1 sequence (P00439 1-452 R261Q) with Q261R
Experimental: (§2) Human embryonic kidney cells (HEK293; Life Technologies™) permanently expressing WT-hPAH, prepared with the Flp-In system (Life Technologies™) were kindly provided by Per Knappskog, Haukeland University Hospital. About 1 million cells were grown in DMEM medium containing 4.5 g/l glucose, 10% (v/v) fetal calf serum, 0.25 mg/ml gentamycine, 2 mM L-glutamine and 50 μg/ml hygromycin B, and after 24 h medium was changed and the test compounds were added at a concentration of 0.02 mg/ml (1% DMSO). Eight hours later, the cells were harvested, and the pellets frozen in dry ice and stored at −80° C. […] To prepare the cell extracts, the frozen cell pellets were thawed in TBS (+protease inhibitor) buffer and cells were homogenized with 0.1% TX-100, incubated 15 minutes at 4° C. and extracts were clarified by centrifugation 20000 g for 15 min at 4° C. Protein concentrations were normalized using a Direct Detect Spectrometer (Merck Millipore).
The 7 selected compounds as well as the first generation pharmacological chaperones (Compounds III and IV) were further analyzed in the presence and absence of BH2 (200 μM), added as precursor of BH4, to account for additive effects. […]
as §2, with “and the compounds were” for “and the test compounds were”, “concentration of 0.04 mg/ml (1%” for “concentration of 0.02 mg/ml (1%”, “for 15 minutes at 4°” for “for 15 min at 4°”

human wild-type PAH [2] = biological target: T2, human wild-type PAH; assay: PAH immunoreactive protein level (Western blot) in HEK293 cells permanently expressing human wild-type PAH; settings: 0.04 mg/ml (average 116.7 μM), 1% DMSO, 8 h
Experimental: as §2
The 7 selected compounds as well as the first generation pharmacological chaperones (Compounds III and IV) were further analyzed in the presence and absence of BH2 (200 μM), added as precursor of BH4, to account for additive effects. A higher concentration of compound was also used 0.04 mg/ml (average of 116.7 μM) at otherwise same experimental conditions.

I65T-PAH = biological target: T3, I65T-PAH (Homo sapiens, UniProt P00439, I65T); assay: PAH protein level and activity in HEK293 EBNA cells transiently expressing PKU mutant I65T; settings: 24 h
T3 construct: expressed in transfected cells; host or cells: HEK293 EBNA, transient, pcDNA3-PAH
T3 sequence (P00439 1-452 I65T): T1 sequence (P00439 1-452 R261Q) with I65T, Q261R
Experimental: as §1

protein and activity, mutant R261Q, Compound 53 and BH2 together (R261Q-PAH; 200 μM each): trends for additive effects | PAH activity, mutant R261Q (R261Q-PAH; 200 μM, 1% DMSO): greatly increased | hPAH protein level, mutant R261Q (R261Q-PAH; 200 μM, 1% DMSO): greatly increased | effect on PAH activity (FIG. 1A) (human wild-type PAH [1]; 0.04 mg/ml (average 116.7 μM), 1% DMSO, 8 h): very large stimulating effect | PAH activity-cells (%) (human wild-type PAH [1]; 0.04 mg/ml compound, 1% DMSO, 8 h, Table 3): 148 ± 16% | increase of hPAH activity with respect to the control (FIG. 6) (human wild-type PAH [1]; average compound concentration 144.9 μM, 1% DMSO, 8 h): around 40% | effect on PAH activity together with BH2 (FIG. 1B) (human wild-type PAH [1]; compound average 116.7 μM plus BH2 200 μM): additive | effect on PAH protein (FIG. 1A) (human wild-type PAH [2]): very large stimulating effect | protein and activity, mutant I65T, Compound 53 and BH2 together (I65T-PAH; 200 μM each): trends for additive effects | PAH activity, mutant I65T (I65T-PAH; 200 μM, 1% DMSO): greatly increased | hPAH protein level, mutant I65T (I65T-PAH; 200 μM, 1% DMSO): greatly increased
SMILES: COc1cc(Cc2cnc(N)nc2N)cc(OC)c1OC [c53, trimethoprim]
